One test concerns the target Factor XIa (Homo sapiens (Human), UniProt P03951). The experiment in a line: Factor XIa inhibition assay (FLINT) utilizing a fluorophore-quencher pair peptide substrate. Type of test: biochemical. The conditions noted are these: 30 min preincubation, kinetic reads over 30 min, read-out: FXIa Kin Inh IC50. An excerpt: Biological Example 1: Factor XIa Inhibition Assay Utilizing a Fluorophore-Quencher Pair Peptide Substrate
A fluorescence intensity (FLINT) based assay was used to monitor inhibition of Factor XIa. The peptide substrate, 5Fam-[…]-K5Tamra (purchased from New England Peptide) was chosen based on the FXI sequence. Conversion of zymogen […]. The custom peptide used in this assay was based on the Arg146 cleavage site of FXI. The peptide substrate was designed with a fluorophore-quencher pair, where the fluorescence is quenched until FXIa cleaves the 8-mer peptide after the Arg residue.
The Factor XIa FLINT assay was used with the following 5Fam-[…]-K5Tamra assay buffer: 50 mM Tris, pH 7.5, 100 mM NaCl, 5 mM CaCl2), 0.1 mg/mL BSA, 0.03% CHAPS. Assay buffer was prepared by mixing all ingredients fresh. 5Fam-[…]-K5Tamra peptide substrate was first prepared at 10 mM in 100% DMSO, then diluted to 3 mM in 100% DMSO. Assay buffer was then added directly to the 3 mM stock of substrate to prepare the 30 μM 2× working concentration (15 μM final concentration). The 2×Factor XIa stock solution was prepared by diluting 6.562 μM stock in 1×assay buffer for a 200 μM working stock solution (100 μM final concentration).
Test compound(s) were run in an 11-point, 3-fold serial dilution with a final top compound concentration of 100 nM. Final DMSO in assay was 2%. FXIa was preincubated with compound for 30-minutes and then substrate was added to initiate the reaction. The assay was run with kinetic (KIN) reads at 5 min intervals over 30 minutes. The time course was linear using 100 μM FXIa greater than 30 minutes. More specifically, the assay was run as follows: • 100 nL of 0.01 mM test compound was dispensed into black 384 well non-binding Greiner BioOne 784900 plate for 0.1 μM final concentration; • 5 μL of 1×assay buffer was dispensed to column 24 (low control) and 5 μL 2×Factor XIa solution was dispensed to columns 1-23 (column 23 high control); • the plate was centrifuged with a “cover” plate at 500 rpm for 1 min • the plate was pre-incubated for 30 minutes at room temperature with plate covered; • 5 μL of 2×5Fam-[…]-K5Tamra peptide substrate was dispensed into the entire plate, columns 1-24; • the plate was centrifuged with a “cover” plate at 500 rpm for 1 min; • the plate was read monitoring fluorescence intensity on the BMG PHERAStar at room temperature, using fluorescence module 485 nm/520 nm.
(§1) Percent inhibition (IC50) curves were generated per compound tested, and data was analyzed using a 4-parameter logistic fit using GeneData Screener. The relative fluorescence unit (RFU) values were normalized to percent inhibition using the following equation:
% inhibition=((HC-LC)−(compound−LC)/(HC-LC))*100
where LC—low control=mean signal of no Factor XIa or 100% inhibition of Factor XIa; HC—high control=mean signal of Factor XIa+5Fam-[…]-K5Tamra peptide substrate with DMSO only.
(§2) An 11-point dose response curve for the test compound(s) was generated using GENDATA to determine IC50 value based on the following equation:
Y=Bottom+(Top-Bottom)/(1+10^((logIC50-X)*HillSlope))
where Y is the % inhibition in the presence of X inhibitor concentration, Top=high control=mean signal of Factor XIa+5Fam-[…] K5Tamra peptide substrate with DMSO only; Bottom=low control−mean signal of no Factor XIa or 100% inhibition of Factor XIa; HillSlope—Hill coefficient; and IC50=concentration of compound with 50% inhibition in relation to top/high control.
Representative compounds of the present invention were tested according to the procedure described in Biological Example 1 and Biological Example 2 above, with results as listed in Table 3, below.

Another test addresses human plasma kallikrein (Homo sapiens (Human), UniProt P03952). The experiment in a line: Kallikrein inhibition assay (FLINT) utilizing a quenched AMC peptide substrate. The following applies: 30 min preincubation, kinetic reads over 30 min, Z-Gly-Pro-Arg-AMC substrate 50 μM; read-out: Kallikrein Kin Inh IC50. It is filed as biochemical. The protocol: Biological Example 2: Kallikrein Inhibition Assay Utilizing a Quenched AMC Peptide Substrate A fluorescence intensity (FLINT) based assay was used to monitor inhibition of human plasma kallikrein.
The Kallikrein FLINT assay was used with the following Z-Gly-Pro-Arg-AMC assay buffer: 50 mM Tris, pH 7.5, 100 mM NaCl, 5 mM CaCl2), 0.1 mg/mL BSA, 0.03% CHAPS. Assay buffer was prepared by mixing all ingredients fresh. 2×Z-Gly-Pro-Arg-AMC peptide substrate was prepared by diluting 10 mM stock into 1×assay buffer for a 100 μM working concentration (50 μM final concentration). The 2×kallikrein stock solution was prepared by diluting 14.76 μM stock in 1×assay buffer for a 4 nM working stock solution (2 nM final concentration).
Test compound(s) were run in an 11-point, 3-fold serial dilution with a final top compound concentration of 1 μM. Final DMSO in assay was 2%. Plasma kallikrein was pre-incubated for 30-minute with compound and then 50 μM substrate was added to initiate the reaction. The assay was run with kinetic (KIN) reads at 5 min intervals over 30 minutes. […] More specifically, the assay was run as follows: • 100 nL of 0.1 mM test compound was dispensed into black 384-well non-binding Greiner BioOne 784900 plate for 1 μM final concentration; • 5 μL of 1×assay buffer was dispensed to columns 24 (low control) and 5 μL 2×human kallikrein enzyme solution was dispensed to columns 1-23 (column 23 high control); • the plate was centrifuged with a “cover” plate at 500 rpm for 1 min • the plate was pre-incubated for 30 minutes at room temperature with plate covered; • 5 μL of 2×Z-Gly-Pro-Arg-AMC peptide substrate was dispensed into the entire plate, columns 1-24; • the plate was centrifuged with a “cover” plate at 500 rpm for 1 min; • the plate was read monitoring fluorescence intensity on the BMG PHERAStar at room temperature, using fluorescence module 340 nm/440 nm.
as §1
% inhibition=((HC-LC)−(compound-LC)\(HC-LC))*100 where LC—low control=mean signal of human kallikrein enzyme or 100% inhibition of human kallikrein enzyme; HC—high control=mean signal of Factor XIa+Z-Gly-Pro-Arg-AMC peptide substrate with DMSO only.
as §2
Y=Bottom+(Top-Bottom)/(1+10^((logIC50−X)*HillSlope)) where Y is the % inhibition in the presence of X inhibitor concentration, Top=high control=mean signal of human kallikrein enzyme+Z-Gly-Pro-Arg-AMC peptide substrate with DMSO only; Bottom=low control−mean signal of no human kallikrein enzyme or 100% inhibition of human kallikrein enzyme; HillSlope—Hill coefficient; and IC50=concentration of compound with 50% inhibition in relation to top/high control.

Where [1] appears, read: 5Fam-[…]-K5Tamra substrate 15 μM.
Where [2] appears, read: 5Fam-KLTRAETV-K5Tamra substrate 15 μM.

The values below come from patent US20230295157A1, “3-(1H-IMIDAZOL-2-YL)-2,3,8,8A-TETRAHYDROINDOLIZIN-5(1H)-ONE DERIVATIVES USEFUL AS FACTOR XIA INHIBITORS” (JANSSEN PHARMACEUTICA NV, priority 2020, published 2023).

Where two headings read alike, the source gives them in different places.

human plasma kallikrein, sequence (P03952 391-638): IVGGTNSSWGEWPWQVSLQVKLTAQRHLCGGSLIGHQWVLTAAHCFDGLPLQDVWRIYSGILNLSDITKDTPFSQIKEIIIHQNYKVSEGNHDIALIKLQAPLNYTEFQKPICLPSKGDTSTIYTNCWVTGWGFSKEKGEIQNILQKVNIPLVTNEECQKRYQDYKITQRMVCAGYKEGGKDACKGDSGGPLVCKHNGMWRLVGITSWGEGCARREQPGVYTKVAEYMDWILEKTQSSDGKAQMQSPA
human plasma kallikrein, sequence (P03952 20-390 partner): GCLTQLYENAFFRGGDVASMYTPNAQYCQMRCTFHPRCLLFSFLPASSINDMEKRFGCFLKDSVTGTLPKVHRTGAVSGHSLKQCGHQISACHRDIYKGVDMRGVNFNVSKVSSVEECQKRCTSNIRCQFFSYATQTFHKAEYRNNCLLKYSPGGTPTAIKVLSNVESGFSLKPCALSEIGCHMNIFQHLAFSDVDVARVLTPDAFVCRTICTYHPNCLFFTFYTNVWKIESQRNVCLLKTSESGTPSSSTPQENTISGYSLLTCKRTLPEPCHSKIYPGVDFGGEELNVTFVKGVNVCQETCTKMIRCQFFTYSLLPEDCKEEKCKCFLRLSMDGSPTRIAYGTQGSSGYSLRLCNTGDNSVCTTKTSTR
Factor XIa, sequence (P03951 388-625): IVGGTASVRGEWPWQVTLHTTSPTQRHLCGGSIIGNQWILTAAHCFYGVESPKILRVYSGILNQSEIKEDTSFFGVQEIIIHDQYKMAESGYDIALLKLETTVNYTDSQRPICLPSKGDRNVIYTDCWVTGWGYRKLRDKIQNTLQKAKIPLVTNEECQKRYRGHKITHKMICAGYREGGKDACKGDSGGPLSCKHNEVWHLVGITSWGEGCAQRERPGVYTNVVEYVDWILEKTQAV
Factor XIa, sequence (P03951 19-387 partner): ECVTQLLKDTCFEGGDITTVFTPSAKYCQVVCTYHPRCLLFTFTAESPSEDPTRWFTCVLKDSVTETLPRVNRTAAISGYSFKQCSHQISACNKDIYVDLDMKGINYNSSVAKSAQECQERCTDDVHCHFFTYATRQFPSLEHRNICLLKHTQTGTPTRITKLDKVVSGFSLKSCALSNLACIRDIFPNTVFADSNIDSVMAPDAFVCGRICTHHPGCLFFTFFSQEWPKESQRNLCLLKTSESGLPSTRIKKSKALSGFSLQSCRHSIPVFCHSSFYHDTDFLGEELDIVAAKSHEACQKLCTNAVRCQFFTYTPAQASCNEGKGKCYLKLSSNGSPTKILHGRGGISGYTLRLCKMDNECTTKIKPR

On to `O=C1C=C(c2c(-n3cnnn3)ccc(Cl)c2F)C[C@H]2CC[C@H](c3ncc(-c4ccnc(COCP(=O)(O)O)c4F)[nH]3)N12` (relative stereo) [Example 37, (((4-(24(3R*,8aR)-7-(3-chloro-2-fluoro-6-(1H-tetrazol-1-yl)phenyl)-5-oxo-1,2,3,5,8,8a-hexahydroindolizin-3-yl)-1H-imidazol-5-yl)-3-fluoropyridin-2-yl)methoxy)methyl)phosphonic acid], for which the IC50 (commonly the concentration needed to halve the response being measured) on Factor XIa (setting [1]) came to 1.3 nM; on human plasma kallikrein, 55.8 nM.

`C[C@@H](O)c1nccc(-c2[nH]c([C@@H]3CC[C@@H]4CC(c5cc(Cl)ccc5-n5cnnn5)=CC(=O)N43)nc2F)c1F` (relative stereo) [Example 45, (3S,8aR)-7-(5-chloro-2-(1H-tetrazol-1-yl)phenyl)-3-(4-fluoro-5-(3-fluoro-2-((R*)-1-hydroxyethyl)pyridin-4-yl)-1H-imidazol-2-yl)-2,3,8,8a-tetrahydroindolizin-5(1H)-one]: the IC50 at Factor XIa (setting [1]) was found to be 4.4 nM; on human plasma kallikrein, 41.3 nM.

Turning to `C[C@H](O)c1nccc(-c2[nH]c([C@@H]3CC[C@@H]4CC(c5cc(Cl)ccc5-n5cnnn5)=CC(=O)N43)nc2F)c1F` (relative stereo) [Example 46, (3S,8aR)-7-(5-chloro-2-(1H-tetrazol-1-yl)phenyl)-3-(4-fluoro-5-(3-fluoro-2-((S*)-1-hydroxyethyl)pyridin-4-yl)-1H-imidazol-2-yl)-2,3,8,8a-tetrahydroindolizin-5(1H)-one], the IC50 at Factor XIa (setting [1]) turned out to be 5.4 nM; on human plasma kallikrein, 35.5 nM.

In the case of `[2H][C@]12CC[C@@H](c3ncc(-c4ccnc(CO)c4F)[nH]3)N1C(=O)C=C(c1c(-n3cnnn3)ccc(Cl)c1F)C2` (relative stereo) [Example 47, (3S,8aR*)-7-(3-Chloro-2-fluoro-6-(1H-tetrazol-1-yl)phenyl)-3-(5-(3-fluoro-2-(hydroxymethyl)pyridin-4-yl)-1H-imidazol-2-yl)-2,3,8,8a-tetrahydroindolizin-5(1H)-one-8a-d], the IC50 came out at 5.7 nM on Factor XIa (setting [1]) and 42.6 nM at human plasma kallikrein.

As to `[2H][C@@]12CC[C@@H](c3ncc(-c4ccnc(CO)c4F)[nH]3)N1C(=O)C=C(c1c(-n3cnnn3)ccc(Cl)c1F)C2` (relative stereo) [Example 48, (3S*,8aS)-7-(3-chloro-2-fluoro-6-(1H-tetrazol-1-yl)phenyl)-3-(5-(3-fluoro-2-(hydroxymethyl)pyridin-4-yl)-1H-imidazol-2-yl)-2,3,8,8a-tetrahydroindolizin-5(1H)-one-8a-d], the IC50 was 22.5 nM at Factor XIa (setting [1]) and 72.4 nM on human plasma kallikrein.

Take `O=C1C=C(c2cc(Cl)ccc2-n2cc(C(F)(F)F)nn2)C[C@H]2CC[C@@H](c3ncc(-c4ccc5[nH]c(=O)cnc5c4F)[nH]3)N12` (relative stereo) [Example 59, 6-(2-((3S*,8aR*)-7-(5-chloro-2-(4-(trifluoromethyl)-1H-1,2,3-triazol-1-yl)phenyl)-5-oxo-1,2,3,5,8,8a-hexahydroindolizin-3-yl)-1H-imidazol-5-yl)-5-fluoroquinoxalin-2(1H)-one]: the IC50 at Factor XIa (setting [1]) was found to be 3.1 nM; on human plasma kallikrein, 12 nM.

With `O=C1C=C(c2cc(Cl)ccc2-n2cc(C(F)(F)F)nn2)C[C@H]2CC[C@@H](c3ncc(-c4ccnc(CO)c4F)[nH]3)N12` (relative stereo) [Example 64, (3S,8aR*)-7-(5-chloro-2-(4-(trifluoromethyl)-1H-1,2,3-triazol-1-yl)phenyl)-3-(5-(3-fluoro-2-(hydroxymethyl)pyridin-4-yl)-1H-imidazol-2-yl)-2 3,8,8a-tetrahydroindolizin-1H-one], the IC50 on Factor XIa (setting [1]) amounted to 11.5 nM; at human plasma kallikrein it was 156 nM.

In the case of `O=C1C=C(c2c(-n3cnnn3)ccc(Cl)c2F)CC2CC[C@@H](c3nc(F)c(-c4ccnc(N[C@H]5CCOC5)c4F)[nH]3)N12` (relative stereo) [Example 76, (3S*)-7-(3-chloro-2-fluoro-6-(1H-tetrazol-1-yl)phenyl)-3-(4-fluoro-5-(3-fluoro-2-(((S)-tetrahydrofuran-3-yl)amino)pyridin-4-yl)-1H-imidazol-2-yl)-2,3,8,8a-tetrahydroindolizin-5(1H)-one], the results for the IC50 at Factor XIa (setting [1]) and at human plasma kallikrein were 0.7 nM and 1.9 nM, respectively.

For the compound `COc1ccc(NC(=O)C2CC2)c(-c2c[nH]c([C@@H]3CC[C@@H]4CC(c5c(-n6cnnn6)ccc(Cl)c5F)=CC(=O)N43)n2)c1` [Example 257, N-[2-[2-[(3S,8aR)-7-[3-Chloro-2-fluoro-6-(tetrazol-1-yl)phenyl]-5-oxo-2,3,8,8a-tetrahydro-1H-indolizin-3-yl]-1H-imidazol-4-yl]-4-methoxy-phenyl]cyclopropanecarboxamide], at Factor XIa (setting [2]), the IC50 was 0.5 nM.

As for `COc1ccc(NC(=O)C2CC2)c(-c2c[nH]c([C@@H]3CC[C@H]4CC(c5c(-n6cnnn6)ccc(Cl)c5F)=CC(=O)N43)n2)c1` [Example 271, N-(2-(2-((3S,8aS)-7-(3-Chloro-2-fluoro-6-(1H-tetrazol-1-yl)phenyl)-5-oxo-1,2,3,5,8,8a-hexahydroindolizin-3-yl)-1H-imidazol-4-yl)-4-methoxyphenyl)cyclopropanecarboxamide], the IC50 on Factor XIa (setting [2]) came to 0.8 nM.

For `COc1ccc(NC(=O)C2CC2)c(-c2c[nH]c([C@@H]3CCC4CC(c5c(-n6cnnn6)ccc(Cl)c5F)=CC(=O)N43)n2)c1` (stereo partly drawn) [Example 279, N-(2-(2-((3S)-7-(3-Chloro-2-fluoro-6-(1H-tetrazol-1-yl)phenyl)-5-oxo-1,2,3,5,8,8a-hexahydroindolizin-3-yl)-1H-imidazol-4-yl)-4-methoxyphenyl)cyclopropanecarboxamide], the half-inhibitory concentration (IC50) on Factor XIa (setting [2]) is 0.9 nM.
